Source: patent US4163662A, “Liquid formulations of 1-(3,4-dichlorophenyl)-3-methoxy-3-methylurea and selected chloroacetamides” (E. I. Du Pont de Nemours and Company, priority 1977, dated 1979)

What was measured:
Format in all cases: physicochemical
[1] = Amount of insoluble crystalline material after room temperature storage (Tables III, IV, V)
Protocol: Samples weighing 5 grams each total weight were prepared by mixing the indicated solids and liquids, in the indicated proportions and shaking in closed vials, which were sealed with epoxy cement to prevent evaporation.
Tables III, IV, and V show the proportions of each mixture and the amounts of insoluble, crystalline material observed in each case after room temperature storage: […]

[2] = Cold Storage Test at 3° C. and at -8° to -9° C., alachlor/linuron (Table II); details: for Max. Stable concentration / Min. Unstable concentration: total active ingredient
Protocol: (§1) Purified linuron, purified propachlor, purified alachlor and commercial "Triclene" (trichloroethylene, technical) are used in the procedure. Samples containing various ratios and concentrations of linuron, propachlor, and linuron-propachlor mixtures are placed in a cold chest. The temperature is lowered and samples are seeded with traces of dust of the active ingredients after the solution has been cooled to the test temperature of -5° C. The samples are then observed over the course of at least 3 to 4 days to determine whether crystallization has occurred. When the temperature of the system is maintained within the range of -4.5° to -5.0° C. for 4 days after seeding. The maximum solution concentration in grams of active ingredient per 100 grams of solvent, at which no crystallization occurs (Max. Stable), and the minimum solution concentration at which crystals first appear (Min. Unstable) are observed.
A similar test was run replacing propachlor with alachlor and at ^+ 3° C. and at -8° to -9° C. with the following results: […]

[3] = Cold Storage Test at -5° C., propachlor/linuron in trichloroethylene (Table I); details: for Max. Stable concentration (no crystallization) / Min. Unstable concentration (crystals first appear): total active ingredient
Source text: The temperature limits below which crystallization of solute will occur can be measured by storing samples in a controlled temperature chest, seeding with tiny crystals of pure materials and observing the growth or disappearance of crystals after a period of several days. If no crystals form, the process is then repeated at a lower temperature, until the limit of stability has been found. However, crystallization characteristics can be also meaningfully, rapidly and conveniently measured by a determination of the cloud point of the system.
as §1

Structure (SMILES)	crystalline material ([1]; 5 weight % linuron, 95% tetrachloroethylene, room temperature)	crystalline material ([1]; 9 weight % linuron, 91% tetrachloroethylene, room temperature)	crystalline material ([1]; 9 weight % linuron, 91% xylene, room temperature)	crystalline material ([1]; 10 weight % linuron, 90% "Panasol" AN-3, room temperature)	crystalline material ([1]; 15 weight % linuron, 85% "Panasol" AN-3, room temperature)	crystalline material ([1]; 17 weight % linuron, 83% xylene, room temperature)	dissolution result on shaking in the solvent ([1]; hydrocarbons and halocarbons, room temperature)	Max. Solubility Range For Linuron ([2]; 3° C.)	Max. Stable concentration ([2]; 3° C.)	Min. Unstable concentration ([2]; 3° C.)	Max. Solubility Range For Linuron ([2]; -8° to -9° C.)	Max. Stable concentration ([2]; -8° to -9° C.)	Min. Unstable concentration ([2]; -8° to -9° C.)	Max. Solubility Range, Linuron [3]	Max. Stable concentration (no crystallization) [3]	Min. Unstable concentration (crystals first appear) [3]	crystalline material ([1]; 18 weight % propachlor, 82% tetrachloroethylene, room temperature)	crystalline material ([1]; 30 weight % propachlor, 70% "Panasol" AN-3, room temperature)	crystalline material ([1]; 34 weight % propachlor, 66% xylene, room temperature)	Max. Solubility Range, Propachlor [3]
CON(C)C(=O)Nc1ccc(Cl)c(Cl)c1 [Linuron, 1-(3,4-dichlorophenyl)-3-methoxy-3-methylurea]	moderate	heavy	slight	moderate	heavy	heavy	crystals remained	4.1-4.7 grams/100 grams Solvent	4.1 grams/100 grams Solvent	4.7 grams/100 grams Solvent	3.6-4.1 grams/100 grams Solvent	3.6 grams/100 grams Solvent	4.1 grams/100 grams Solvent	4.1-5.2 grams/100 grams Solvent	4.1 grams/100 grams Solvent	5.2 grams/100 grams Solvent	–	–	–	–
CC(C)N(C(=O)CCl)c1ccccc1 [Propachlor, 2-chloro-N-isopropylacetanilide]	–	–	–	–	–	–	–	–	–	–	–	–	–	–	21.9 grams/100 grams Solvent	25 grams/100 grams Solvent	moderate	moderate	moderate	21.9-25 grams/100 grams Solvent
